Tests used:
[1] = test system: primary ectocervical cells; experiment: Gentamycin-resistance invasion assay of N. gonorrhoeae 1291 with inhibitors of cytoskeletal motility and protein synthesis, ectocervical cells; assay type: cell-based, human; conditions: for effect on bacterial entry / gonococcal invasion: both cell types (endo- and ectocervical)
Protocol: Invasion Assays in the Presence of Inhibitors of Cytoskeletal Motility and Protein Synthesis: Cervical cells were passed to 12 mm collagen-coated coverslips as outlined above. Prior to infection with N. gonorrhoeae 1291 wild-type cells, primary cell cultures were left untreated, or they were pre-incubated with 300 nM wortmannin (Sigma), 1 μM cytochalasin D (Sigma), or 400 mM ethylene glycol bis-(2-aminoethyl ether)-N,N, N′, N′ tetraacetic acid ((EGTA) Amresco, Solon, Ohio) for 2 h, 30 min, and 30 min, respectively, or they were pretreated with 100 µg/ml nocodazole (Calbiochem-Novabiochem Corp., La Jolla, Calif.) for 1 h at 4° C. followed by a 30 min incubation at 37° C. The requirement for de novo protein synthesis, either by the bacteria or by the primary cervical cells, was tested by pretreatment (30 min, 37° C.) of the bacterial cultures or cervical cell monolayers with 4 μg/ml chloramphenicol (Sigma) or 25 μM cycloheximide (Calbiochem-Novabiochem Corp.), respectively. All chemical reagents used were maintained in the infection medium throughout the course of the infection. […] Infection was allowed to progress at 37° C., 5% CO2, for 1.5 h after which the medium was removed, the cells were rinsed with PBS, and then incubated with KGM-2 containing 100 μg/ml gentamycin to kill extracellular bacteria. Post incubation the cervical cells were lysed with 0.5% saponin to release invasive bacteria. Percent invasion was determined as a function of the original inoculum and the number of colonies formed with subsequent plating of the cellular lysate. A Kruskal-Wallace ANOVA was used to determine the statistical significance of the calculated percent invasion for each of the cytoskeletal motility inhibitors used with respect to the untreated, infected cell cultures.

PLD = PLD activity (Amplex Red Phospholipase D Assay Kit) in gonococci, infected cervical cell lysates, fractions and supernatants; assay type: biochemical, N. gonorrhoeae
Protocol: (§1) 4. Determination of PLD Activity. PLD activity was accessed using the Amplex™ Red Phospholipase D Assay Kit (Molecular Probes, Eugene Oreg.). Wild-type and PLD mutant gonococci were suspended in PLD assay buffer to a final concentration of 10^7 bacteria ml^−1, and activity was determined according to the manufacturer's protocol. Assessment of PLD activity at acidic pH was determined in a two-step assay according to the manufacturer's protocol. For the first step, 10^8 gonococci were suspended in PBS with the pH adjusted to 3.0, 4.5, or 6.0. Gonococcal suspensions were diluted 10-fold in PLD assay buffer for the second step of the reaction. Cervical cell fractions were prepared as outlined below and PLD activity was assessed at neutral pH according to the manufacturer's protocol.
5. Fractionation of Primary Cervical Cells. Uninfected (control) and infected cervical cell monolayers were lysed in buffer A (50 mM tris, pH 7.5; 10 mM NaCl, 1 mM KCl; 2 mM MgCl2, 1 mM PMSF) by scraping cervical cells from tissue culture dishes placed on ice. The cell lysate was sonicated (two bursts of 20 seconds each). Cell debris and the nuclear fraction was removed by centrifugation (750×g, 10 minutes), and the supernatant from this spin was then subjected to filtration through a low-protein binding 0.22 μm syringe filter to ensure removal of gonococci. Alternatively, gonococci were removed by immunoprecipitation (as described by Wen et al., 2000) using the monoclonal antibody, 2C3, which recognizes the H.8 outer membrane protein of the pathogenic Neisseria. Sucrose was added to the resulting gonococcus-depleted supernatant (S1) to a final concentration of 300 mM. Ultracentrifugation (150,000×g, 90 minutes) was then performed to produce the plasma membrane-(pellet) and cytosol (supernatant 2, S2)-enriched fractions. The membrane-enriched fraction was resuspended in PLD assay buffer (50 mM Tris, 5 mM CaCl2, pH 8.0). S2 was concentrated by filtration through Centricon YM-30 centrifugal filter units (Millipore) after which cytosolic constituents were recovered in PLD assay buffer. Where indicated, prior to infection studies primary pex and pen cell monolayers were treated with 300 nM wortmannin (Sigma) (2 hours, 37° C.) or 1 μM cytochalasin D (Sigma) (30 minutes, 37° C.) to inhibit macropinocytosis of gonococci. Wortmannin and cytochalasin D were maintained in cervical cell cultures during the course of infection.
as §1, with “Determination of” for “4. Determination of”, “Assessment of gonococcal PLD activity” for “Assessment of PLD activity”
Fractionation of Primary Cervical Cells. Uninfected (control) and infected cervical cell monolayers were lysed in buffer A (50 mM tris, pH 7.5; 10 mM NaCl, 1 mM KCl; 2 mM MgCl2, 1 mM PMSF) by scraping cervical cells from tissue culture dishes placed on ice. The cell lysate was sonicated (two bursts of 20 seconds each). […] Sucrose was added to the resulting gonococcus-depleted supernatant (S1) to a final concentration of 300 mM. Ultracentrifugation (150,000×g, 90 minutes) was then performed to produce the plasma membrane-(pellet) and cytosol (supernatant 2, S2)-enriched fractions. The membrane-enriched fraction was resuspended in PLD assay buffer (50 mM Tris, 5 mM CaCl2, pH 8.0). […]

Ectocervical Cells = experiment: Association and invasion (gentimicin-resistance) assays, primary ectocervical (pex) cells; assay type: cell-based, human
Protocol: 8. N. gonorrhoeae Attachment to and Invasion of Primary, Human, Cervical Cells. Primary cervical cell monolayers were infected with wild-type or PLD mutant gonococci as outlined above. Variable concentrations of Streptomyces spp. PLD (SsPLD) (Sigma), PMA, or 4-α phorbol were included in association (adherence and invasion) or invasion assays, as noted. Cervical cells were preincubated (30 minutes, 37° C.) with 200 nM PMA or 4-α phorbol before the addition of gonococci. 10 units ml^−1 SsPLD was added simultaneously with gonococci. Alternatively, where noted, cervical cell monolayers were pre-incubated (30 minutes, 37° C.) with pervanadate, which was made by mixing 100 μM ortho-sodium vanadate in 3 mM hydrogen peroxide. In separate assays, infection supernatants were collected from wild-type or PLD mutant-infected cervical cell monolayers, gonococci were removed by filtration through a 0.22 μm syringe filter (i.e., wild-type or mutant primed supernatants) and were added to association and/or invasion assays, as noted. The ability of gonococci to adhere to and/or invade pex and pen cells was quantitatively determined using standard gentimicin-resistance assays, performed as described previously (Edwards et al., 2000), and in which chemical or protein additives were included or excluded from the invasion assay as described above. The total association (i.e., adherence and invasion) of gonococci with pex and pen cells was quantitated by the omission of gentimicin from the above described invasion assay. Percent invasion of N. gonorrhoeae 1291 or 1291ΔPLDin the presence or absence of experimental additives was determined as a function of the original inoculum and the number of colonies formed with subsequent plating of the cellular lysate. A Kruskal-Wallis non-parametric analysis of variance was used to determine the statistical significance of the association and invasion assays described above.
N. gonorrhoeae Attachment to and Invasion of Primary, Human, Cervical Cells. Primary cervical cell monolayers were infected with wild-type or PLD mutant gonococci as outlined above. Variable concentrations of PtC (Sigma), ethanol, 2-butanol, or Streptomyces spp. PLD (SsPLD) (Sigma) were included in association (adherence and invasion) or invasion assays, as noted. PtC, ethanol, 2-butanol, or 10 units ml^−1 SsPLD were added simultaneously with gonococci. In separate assays, infection supernatants were collected from wild-type or PLD mutant-infected cervical cell monolayers, gonococci were removed by filtration through a 0.22 μm syringe filter (to yield primed wild-type or mutant supernatants), which were then added to association and/or invasion assays, as noted. The ability of gonococci to adhere to and/or invade pex and pen cells was quantitatively determined using standard gentimicin-resistance assays, performed as described previously (Edwards et al., 2000) and in which chemical or protein additives were included or excluded from the invasion assay as described above. The total association (i.e., adherence and invasion) of gonococci with pex and pen cells was quantitated by the omission of gentimicin from the above described invasion assay. Percent invasion of N. gonorrhoeae 1291 or 1291ΔPLD in the presence or absence of experimental additives was determined as a function of the original inoculum and the number of colonies formed with subsequent plating of the cellular lysate. Inhibition of gonococcal attachment and/or invasion by exogenous PtC, ethanol, or 2-butanol was determined as a normalized function of the ability of gonococci to attach to and/or invade primary cervical cells in the absence of the competimer inhibitor. A Kruskal-Wallis non-parametric analysis of variance was used to determine the statistical significance of the association and invasion assays described above.

[2] = test system: primary human ectocervical cells; experiment: rI-domain inhibition of adherence and invasion of primary ectocervical cells by N. gonorrhoeae 1291; assay type: cell-based
Protocol: Studies were performed evaluating the ability of the rI-domain to inhibit adherence and invasion of primary human ectocervical cells by Neisseria gonorrhoeae. The cervical cells were infected with 107 N. gonorrhoeae strain 1291. Recombinant I-domain is a potent inhibitor of ectocervical cell association by Neisseria gonorrhoeae. As little as 1 ng of rI-domain gives over 90% inhibition of invasion. With decreasing amounts of rI-domain the inhibition decreases in a dose dependent fashion.

[3] = PtC 10.0 µg/ml, wild-type gonococci

## O=C(N[C@H](CO)[C@H](O)c1ccc([N+](=O)[O-])cc1)C(Cl)Cl [Chloramphenicol, chloramphenicol]
[1]
  effect on bacterial entry / gonococcal invasion: did not inhibit gonococcal invasion

## C[C@@H]1C[C@@H]([C@H](O)CC2CC(=O)NC(=O)C2)C(=O)[C@@H](C)C1 [Cycloheximide, cycloheximide]
[1]
  effect on bacterial entry / gonococcal invasion: did not inhibit gonococcal invasion

## C=C1[C@@H](C)[C@H]2[C@H](Cc3ccccc3)NC(=O)[C@]23[C@H](OC(C)=O)/C=C/[C@@](C)(O)C(=O)[C@@H](C)C/C=C/[C@H]3[C@@H]1O [Cytochalasin D, cytochalasin D]
[1]
  effect on bacterial entry / gonococcal invasion: prohibited bacterial entry
PLD; Cytosolic fraction, 1291ΔPLD infected w/ inhibitor (300 nM wortmannin or 1 μM cytochalasin D)
  PLD Activity in Ectocervical Cell Fractions [Mean (variance)]: 0.330 (0.07) Fluorescence Units
PLD; Cytosolic fraction, Uninfected w/ inhibitor (300 nM wortmannin or 1 μM cytochalasin D)
  PLD Activity in Ectocervical Cell Fractions [Mean (variance)]: 0.395 (0.03) Fluorescence Units
PLD; Cytosolic fraction, WT 1291 infected w/ inhibitor (300 nM wortmannin or 1 μM cytochalasin D)
  PLD Activity in Ectocervical Cell Fractions [Mean (variance)]: 0.462 ((0.03) Fluorescence Units
PLD; Membrane fraction, 1291ΔPLD infected w/ inhibitor (300 nM wortmannin or 1 μM cytochalasin D)
  PLD Activity in Ectocervical Cell Fractions [Mean (variance)]: 0.393 (0.01) Fluorescence Units
PLD; Membrane fraction, Uninfected w/ inhibitor (300 nM wortmannin or 1 μM cytochalasin D)
  PLD Activity in Ectocervical Cell Fractions [Mean (variance)]: 0.389 (0.01) Fluorescence Units
PLD; Membrane fraction, WT 1291 infected w/ inhibitor (300 nM wortmannin or 1 μM cytochalasin D)
  PLD Activity in Ectocervical Cell Fractions [Mean (variance)]: 0.436 (0.03) Fluorescence Units

## O=C(O)CN(CCOCCOCCN(CC(=O)O)CC(=O)O)CC(=O)O [EGTA, ethylene glycol bis-(2-aminoethyl ether)-N,N, N′, N′ tetraacetic acid]
[1]
  effect on bacterial entry / gonococcal invasion: prohibited bacterial entry

## COC(=O)Nc1nc2ccc(C(=O)c3cccs3)cc2[nH]1 [Nocodazole, nocodazole]
[1]; pretreatment of primary cervical cell monolayers
  decrease in gonococcal invasion: ~67%

## phosphatidylcholine [PtC]
Ectocervical Cells; [3]
  Inhibition (%): 98.7786 (0.08) %
  Invasion (%): 0.0331 (0.01) %
Ectocervical Cells; PtC 0.01 g/ml
  Inhibition (%): 68.8105 (2.15) %
  Invasion (%): 0.8379 (0.03) %
Ectocervical Cells; PtC 0.1 g/ml
  Inhibition (%): 87.3571 (0.28) %
  Invasion (%): 0.3418 (0.01) %
Ectocervical Cells; PtC 1.0 g/ml
  Inhibition (%): 92.4681 (0.38) %
  Invasion (%): 0.2038 (0.01) %

B1: rI domain: recombinant murine I-domain of CR3 alpha-subunit, 23 kilodalton peptide with Myc and His domains (SEQ ID NO: 11) (protein, listed as Mus musculus)
chain: FPQQESDIVFLIDGSGSINNIDFQKMKEFVSTVMEQFKKSKTLFSLMQYSDEFRIHFTFNDFKRNPSPRSHVSPIKQLNGRTKTASGIRKVVRELFHKTNGARENAAKILVVITDGEKFGDPLDYKDVIPEADRAGVIRYVIGVGNAFNKPQSRRELDTIASKPAGEHVFQVDNFEALNTIQNQLQEKIFAIPAAASFL
modifications: Myc and His tags
[2]; rI domain 1 pg/ml
  % inhibition of invasion of primary exocervical cells: 17.4%
[2]; rI domain 10 pg/ml
  % inhibition of invasion of primary exocervical cells: 56.3%
[2]; rI domain 100 pg/ml
  % inhibition of invasion of primary exocervical cells: 77.5%
[2]; rI domain 1 ng/ml
  % inhibition of invasion of primary exocervical cells: 92.1%
[2]; rI domain 1 ng/ml, listed as rI-domain
  % inhibition of invasion of primary exocervical cells: over 90%
[2]; rI domain 10 ng/ml
  % inhibition of invasion of primary exocervical cells: 94.6%
[2]; rI domain 100 ng/ml
  % inhibition of invasion of primary exocervical cells: 96.8%
[2]; rI domain 1 μg/ml, N. gonorrhoeae 1291
  % inhibition of invasion of primary exocervical cells: 98.56%

— patent US7261901B2, “Vaccine and compositions for the prevention and treatment of neisserial infections” (University of Iowa Research Foundation, priority 2001, dated 2007)
